By IC50 is commonly meant the concentration at which inhibition is half-maximal. As a reminder, the melting point is the temperature, or range, at which the solid turns liquid.

Results on 18 compounds are retold here after patent US6472404B1 (priority 2000, dated 2002).

Data set [1] relates to HIV-HXB2. In words: Antiviral assay: protection of HIV-infected MT4 cells from cell death (MTT). The conditions noted are these: Human immunodeficiency virus 1, 120 h; MT4 cells infected with HIV-HXB2; 5 days; MTT viability; rounded to nearest whole number. It is filed as cell-based. How it is done:
Methods 20: 309-321]. The method is based on the ability of compounds to protect HIV-infected T lymphoblastoid cells (MT4 cells) from cell-death mediated by the infection. The endpoint of the assay was calculated as the concentration of compound at which the cell viability of the culture was preserved by 50% (‘50% inhibitory concentration’, IC50). The cell viability of a culture was determined by the uptake of soluble, yellow 3-[4,5-dimethylthiazol-2-yl]-2,5-diphenyltetrazolium bromide (MTT) and its reduction to a purple insoluble formazan salt. After solubilization, spectrophotometric methods were employed to measure the amount of formazan product.
MT4 cells were prepared to be in logarithmic-phase growth and a total of 2×10^6 cells infected with either the wild type or site directed mutant clones of HIV-HXB2 at a multiplicity of approximately 0.0001 infectious units of virus per cell in a total volume of between 200-500 μl. The cells were incubated with virus for one hour at 37° C. then washed in 0.01 M phosphate buffered saline, pH 7.2, and resuspensed in culture medium for incubation in culture with serial dilutions of test compound. The culture medium used was RPMI 1640 without phenol red, supplemented with penicillin, streptomycin, L-glutamine and 10% fetal calf serum (GM10).
Test compounds were prepared as 2 mM solutions in dimethyl sulphoxide (DMSO). Four replicate, serial 2-fold dilutions in GM10 were then prepared and 50 microliter amounts placed in 96-well plates over a final concentration range of […]. Fifty microliters GM10 and 3.75×10^4 infected cells were then added to each well. Control cultures containing no cells (blank), uninfected cells (100% viability; 4 replicates) and infected cells without compound (total virus-mediated cell death; 4 replicates) were also prepared. The cultures were then incubated at 37° C. in a humidified atmosphere of 5% CO2 in air for 5 days.
A fresh solution of 5 mg/mL MTT was prepared in 0.01 M phosphate buffered saline, pH 7.2 and 20 μL added to each culture. The cultures were further incubated as before for 2 hours. They were then mixed by pipetting up and down, and 170 microliters of Triton X-100 in acidified isopropanol (10% v/v Triton X-100 in 1:250 mixture of concentrated HCl in isopropanol) were added and the cultures were mixed again by pipetting up and down. When the formazan deposit was fully solubilized by further mixing, the absorbance (OD) of the cultures was measured at 540 nm and 690 nm wavelength (690 nm readings were used as blanks for artefacts between wells). The percent protection for each treated culture was then calculated from the equation:
OD drug-treated cultures)−(OD untreated virus control cultures) % Protection=100%
(OD uninfected cultures)−(OD untreated virus control cultures)
The IC50 was then obtained from graph plots of percentage protection versus log10 drug concentration.

Data set [2] deals with HIV-1 protease (Human immunodeficiency virus type 1 group M subtype B, UniProt P04585). The experiment in a line: HIV protease inhibition assay (quenched fluorogenic substrate, fluorescence energy transfer).
Method: HIV protease inhibitory activity was assessed using an adaptation of the method of Matayoshi. et al. [Matayoshi E. D. et al (1990).
Crude HIV-1 protease was prepared from E. coli pPTΔN. Cultures were grown at 30° in M9 medium supplemented with 0.2% casamino acids, 100 μg/ml ampicillin and 25 μg/ml thiamine until OD600=0.5-0.6, and the temperature was raised to 42° to induce expression of the protease. After 1.5 hours, the cells were harvested and the pellets stored at −70° until required.
The protease was prepared by lysis of the cells in a French pressure cell followed by precipitation of the enzyme with ammonium sulfate at 30% saturation.
The assay buffer comprised 0.1M sodium acetate pH 4.7, 8 mM EDTA, 0.2 M NaCl.
Tubes were incubated for 2 hours at 37° and the reaction was terminated by the addition of 500 μl of a 2:1 mixture of DMSO:50 mM Tricine pH 8.5. Fluorescence was measured in a fluorescence spectrophotometer, excitation λ=340 nm, emission λ=492 nm.

As for `CC(C)(C)NC(=O)[C@@H]1C[C@@H]2CCCC[C@@H]2CN1C[C@@H](O)[C@H](Cc1ccccc1)NC(=O)[C@@H](NC(=O)c1ccoc1)C(C)(C)S(C)(=O)=O` [Example 28, N-tert-Butyl-2-[3-(S)-[[N-(3-furoyl)-3-(methanesulfonyl)-L-valyl]amino]-2(R)-hydroxy-4-phenylbutyl]-1,2,3,4,4a(S),5,6,7,8,8a(S)-decahydro-3(S)-isoquinolinecarboxamide], the IC50 worked out at 21 nM in data set [1] and 1 nM in data set [2].

`CC(C)(C)NC(=O)[C@@H]1C[C@@H]2CCCC[C@@H]2CN1C[C@@H](O)[C@H](Cc1ccccc1)NC(=O)[C@@H](NC(=O)NCc1ccccc1)C(C)(C)S(C)(=O)=O` [Example 168, 2-[3(S)-[[N-(Benzylcarbamoyl)-3-(methanesulfonyl)-L-valyl]amino]-2(R)-hydroxy-4-phenylbutyl]-N-tert-butyl-1,2,3,4,4a(S),5,6,7,8,8a(S)-decahydro-3(S)-isoquinolinecarboxamide]: the figures for the IC50 in data set [1] and in data set [2] were 16 nM and 0.5 nM, respectively.

In the case of `CC(C)(C)NC(=O)[C@@H]1C[C@@H]2CCCC[C@@H]2CN1C[C@@H](O)[C@H](Cc1ccccc1)NC(=O)[C@@H](NC(=O)COc1cccnn1)C(C)(C)S(C)(=O)=O` [Example 154], the IC50 in data set [1] is 16 nM; in data set [2], 0.5 nM.

On to `CC(C)(C)NC(=O)[C@@H]1C[C@@H]2CCCC[C@@H]2CN1C[C@@H](O)[C@H](Cc1ccccc1)NC(=O)[C@@H](NC(=O)c1cccnc1)C(C)(C)S(C)(=O)=O` [Example 7, N-tert-butyl-1,2,3,4,4a(S),5,6,7,8,8a(S)-decahydro-2-[2(R)-hydroxy-3(S)-[[3-(methanesulfonyl)-N-[(3-pyridyl)carbonyl]-L-valyl]amino]-4-phenylbutyl]-3(S)-isoquinolinecarboxamide], for which the IC50 worked out at 21 nM in data set [1] and 2.3 nM in data set [2].

With `CC(C)NCC(=O)N[C@H](C(=O)N[C@@H](Cc1ccccc1)[C@H](O)CN1C[C@H]2CCCC[C@H]2C[C@H]1C(=O)NC(C)(C)C)C(C)(C)S(C)(=O)=O` [Example 92, N-tert-Butyl-1,2,3,4,4a(S),5,6,7,8,8a(S)-decahydro-2-[2(R)-hydroxy-3(S)-[[N-[2-(isopropylamino)acetyl]-3-(methanesulfonyl)-L-valyl]amino]-4-phenylbutyl]-3(S)-isoquinolinecarboxamide], the IC50 in data set [1] worked out at 33 nM; in data set [2], 4 nM.

Compound `CC(C)(C)NC(=O)[C@@H]1C[C@@H]2CCCC[C@@H]2CN1C[C@@H](O)[C@H](Cc1ccccc1)NC(=O)[C@@H](NC(=O)COc1cccc(F)c1)C(C)(C)S(C)(=O)=O` had a melting point of 197 to 199 °C.

For the compound `CN(Cc1cccnc1)C(=O)N[C@H](C(=O)N[C@@H](Cc1ccccc1)[C@H](O)CN1C[C@H]2CCCC[C@H]2C[C@H]1C(=O)NC(C)(C)C)C(C)(C)S(C)(=O)=O` [Example 170, N-tert-Butyl-1,2,3,4,4a(S),5,6,7,8,8a(S)-decahydro-2-[2(R)-hydroxy-3(S)-[[3-(methanesulfonyl)-N-[N-methyl-N-[(3-pyridyl)methyl]carbamoyl]-L-valyl]amino]-4-phenylbutyl]-3(S)-isoquinolinecarboxamide], the IC50 in data set [1] was found to be 13 nM; in data set [2], 1 nM.

As for `CC(C)(C)NC(=O)[C@@H]1C[C@@H]2CCCC[C@@H]2CN1C[C@@H](O)[C@H](Cc1ccccc1)NC(=O)[C@@H](NC(=O)CNc1ccccc1)C(C)(C)S(C)(=O)=O` [Example 93, N-tert-Butyl-1,2,3,4,4a(S),5,6,7,8,8a(S)-decahydro-2-[2(R)-hydroxy-3(S)-[3-(methanesulfonyl)-N-(N-phenylglycyl)-L-valyl]amino]-4-phenylbutyl-3(S)-isoquinolinecarboxamide], the IC50 in data set [1] is 8 nM; in data set [2] it was 0.5 nM.

With `CC(C)(C)NC(=O)[C@@H]1C[C@@H]2CCCC[C@@H]2CN1C[C@@H](O)[C@H](Cc1ccccc1)NC(=O)[C@@H](NCc1ccccc1)C(C)(C)S(C)(=O)=O` [Example 112, 2-[3(S)-[[N-Benzyl-3-(methanesulfonyl)-L-valyl]amino]-2(R)-hydroxy-4-phenylbutyl]-N-tert-butyl-1,2,3,4,4a(S),5,6,7,8,8a(S)-decahydro-3(S)-isoquinolinecarboxamide], the IC50 in data set [1] turned out to be 94 nM; in data set [2], 7.5 nM.

With `CC(C)(C)NC(=O)[C@@H]1C[C@@H]2CCCC[C@@H]2CN1C[C@@H](O)[C@H](Cc1ccccc1)NC(=O)[C@@H](NC(=O)COc1cccnc1)C(C)(C)S(C)(=O)=O` [Example 3, N-tert-butyl-1,2,3,4,4a(S),5,6,7,8a(S)-decahydro-2-[2(R)-hydroxy-3(S)-[[3-(methanesulfonyl)-N-[2-(3-pyridyloxy)acetyl]-L-valyl]amino]-4-phenylbutyl]-3(S)-isoquinolinecarboxamide], the IC50 was determined as 17 nM in data set [1] and 0.6 nM in data set [2].

Consider `CC(C)(C)NC(=O)[C@@H]1C[C@@H]2CCCC[C@@H]2CN1C[C@@H](O)[C@H](Cc1ccccc1)NC(=O)[C@@H](NC(=O)COc1ccccn1)C(C)(C)S(C)(=O)=O` [Example 152], for which the figures for the IC50 in data set [1] and in data set [2] were 17 nM and 1.2 nM, respectively.

Compound `CC(C)(C)NC(=O)[C@@H]1C[C@@H]2CCCC[C@@H]2CN1C[C@@H](O)[C@H](Cc1ccccc1)NC(=O)[C@@H](n1cc[nH]c1=O)C(C)(C)S(C)(=O)=O` yielded a melting point of 228 to 230 °C.

`CC(C)(C)NC(=O)[C@@H]1C[C@@H]2CCCC[C@@H]2CN1C[C@@H](O)[C@H](Cc1ccccc1)NC(=O)[C@@H](Nc1nc(CO)cs1)C(C)(C)S(C)(=O)=O`: the melting point was 126 °C.

As to `CC(C)(C)NC(=O)[C@@H]1C[C@@H]2CCCC[C@@H]2CN1C[C@@H](O)[C@H](Cc1ccccc1)NC(=O)[C@@H](NC(=O)c1cccc(F)c1)C(C)(C)S(C)(=O)=O` [Example 40, N-tert-Butyl-2-[3-(S)-[[N-(3-fluorobenzoyl)-3-(methanesulfonyl)-L-valyl]amino]-2(R)-hydroxy-4-phenylbutyl]-1,2,3,4,4a(S),5,6,7,8,8a(S)-decahydro-3(S)-isoquinolinecarboxamide], the IC50 is 19 nM in data set [1] and 1.4 nM in data set [2].

Regarding `CC(C)(C)NC(=O)[C@@H]1C[C@@H]2CCCC[C@@H]2CN1C[C@@H](O)[C@H](Cc1ccccc1)NC(=O)[C@@H](NC(=O)N1CCOCC1)C(C)(C)S(C)(=O)=O` [Example 106, N-tert-Butyl-1,2,3,4,4a(S),5,6,7,8,8a(S)-decahydro-2-[2(R)-hydroxy-3(S)-[[3-(methanesulfonyl)-N-(morpholinocarbonyl)-L-valyl]amino]-4 phenylbutyl]-3(S)-isoquinolinecarboxamide], the IC50 in data set [1] was determined as 60 nM; in data set [2], 10.7 nM.

In the case of `Cc1csc(N[C@H](C(=O)N[C@@H](Cc2ccccc2)[C@H](O)CN2C[C@H]3CCCC[C@H]3C[C@H]2C(=O)NC(C)(C)C)C(C)(C)S(C)(=O)=O)n1` [Example 138, N-tert-Butyl-1,2,3,4,4a(S),5,6,7,8,8a(S)-decahydro-2-[2(R)-hydroxy-3(S)-[[3-(methanesulfonyl)-N-(4-methyl-2-thiazolyl)-L-valyl]amino]-4-phenylbutyl]-3(S)-isoquinolinecarboxamide], the results for the IC50 in data set [1] and in data set [2] were 65 nM and 7.8 nM, respectively.

On to `CC(C)(C)NC(=O)[C@@H]1C[C@@H]2CCCC[C@@H]2CN1C[C@@H](O)[C@H](Cc1ccccc1)NC(=O)[C@@H](NC(=O)c1ccc(Cl)nc1)C(C)(C)S(C)(=O)=O` [Example 16, N-tert-Butyl-2-[3-(S)-[[N-[(6-chloro-3-pyridyl)carbonyl]-3-(methanesulfonyl)-L-valyl]amino]-2(R)-hydroxy-4-phenylbutyl]-1,2,3,4,4a(S),5,6,7,8,8a(S)-decahydro-3(S)-isoquinolinecarboxamide], for which the IC50 in data set [1] is 12 nM; in data set [2] it was 1 nM.

In turn, `CC(C)(C)NC(=O)[C@@H]1C[C@@H]2CCCC[C@@H]2CN1C[C@@H](O)[C@H](Cc1ccccc1)NC(=O)[C@@H](NS(C)(=O)=O)C(C)(C)S(C)(=O)=O` came in with a melting point of 135 to 160 °C.
